Measurements reported in EP0413289B1 (priority 1989, dated 1991).
≈ marks a conversion by molar mass, not a printed value.

Legend:
[1] = system: panel of fifteen human rhinovirus (HRV) serotypes; experiment: plaque reduction assay, panel of fifteen human rhinovirus serotypes (MIC50/MIC80); assay type: cell-based; details: for MIC₈₀ (N) (Rhinovirus): concentration required to inhibit 80% of the tested serotypes, N in parentheses = number of serotypes tested; for MIC50: concentration required to inhibit 50% of the tested serotypes, HeLa (Wisconsin) cells, read-out: MIC₅₀ (Rhinovirus)
Description: (§1) The MIC values were determined by a standard plaque reduction assay as follows: HeLa (Wisconsin) cells in monolayers were infected at a concentration of virus to give approximately 80 plaques per monolayer in the virus control (no drug present). The compound to be tested was serially diluted and included in the agar-medium overlay and in some cases, during the adsorption period as well. The MIC was determined to be that concentration of compound which reduced the number of plaques by 50% with respect to the untreated virus control.
(§2) In the standard test procedures, the compounds were tested against a panel of fifteen human rhinovirus (HRV) serotypes, namely HRV-2, -1A, -1B, -6, -14, -21, -22, -15, -25, -30, -50, -67, -89, -86 and -41. The MIC value for each rhinovirus serotype was determined, and the efficacy of each compound was determined in terms of MIC₅₀ and MIC₈₀ values, which is the concentration of the compound required to inhibit 50% and 80%, respectively, of the tested serotypes.
The following Table gives the testing results with the compounds of the invention. For some of the compounds, the MIC₅₀ and MIC₈₀ values are based on the testing of fewer than 15 rhinovirus serotypes. In these cases the number of serotypes (N) is indicated in parentheses after the MIC₈₀ figure.

Polio 2 = experiment: microbe, parasite or virus in culture; assay type: cell-based; details: HeLa, read-out: MIC (Polio 2)
HRV-1A = experiment: plaque reduction assay, rhinovirus serotype 1A; assay type: cell-based, human rhinovirus (HRV); details: 50% plaque reduction, HeLa (Wisconsin) cells, read-out: MIC
Description: as §1, §2
(§3) The following Table compares the MIC values for the compound of Example 10(c) and the methylated derivative of Example 11(c) against 15 rhinovirus serotypes: […]

HRV-21 = experiment: plaque reduction assay, rhinovirus serotype 21; assay type: cell-based, human rhinovirus (HRV); details: Enterovirus, HRV21, 50% plaque reduction, HeLa (Wisconsin) cells, read-out: MIC
Description: as §1, §2, §3

HRV-25 = experiment: plaque reduction assay, rhinovirus serotype 25; assay type: cell-based, human rhinovirus (HRV); details: Enterovirus, HRV25, 50% plaque reduction, HeLa (Wisconsin) cells, read-out: MIC
Description: as §1, §2, §3

HRV-1B = experiment: plaque reduction assay, rhinovirus serotype 1B; assay type: cell-based, human rhinovirus (HRV); details: 50% plaque reduction, HeLa (Wisconsin) cells, read-out: MIC
Description: as §1, §2, §3

HRV-6 = experiment: plaque reduction assay, rhinovirus serotype 6; assay type: cell-based, human rhinovirus (HRV); details: Enterovirus, HRV6, 50% plaque reduction, HeLa (Wisconsin) cells, read-out: MIC
Description: as §1, §2, §3

HRV-86 = experiment: plaque reduction assay, rhinovirus serotype 86; assay type: cell-based, human rhinovirus (HRV); details: Enterovirus, HRV86, 50% plaque reduction, HeLa (Wisconsin) cells, read-out: MIC
Description: as §1, §2, §3

HRV-41 = experiment: plaque reduction assay, rhinovirus serotype 41; assay type: cell-based, human rhinovirus (HRV); details: Enterovirus, HRV41, 50% plaque reduction, HeLa (Wisconsin) cells, read-out: MIC
Description: as §1, §2, §3

HRV-50 = experiment: plaque reduction assay, rhinovirus serotype 50; assay type: cell-based, human rhinovirus (HRV); details: Enterovirus, HRV50, 50% plaque reduction, HeLa (Wisconsin) cells, read-out: MIC
Description: as §1, §2, §3

HRV-67 = experiment: plaque reduction assay, rhinovirus serotype 67; assay type: cell-based, human rhinovirus (HRV); details: Enterovirus, HRV67, 50% plaque reduction, HeLa (Wisconsin) cells, read-out: MIC
Description: as §1, §2, §3

HRV-2 = experiment: plaque reduction assay, rhinovirus serotype 2; assay type: cell-based, human rhinovirus (HRV); details: 50% plaque reduction, HeLa (Wisconsin) cells, read-out: MIC
Description: as §1, §2, §3

HRV-22 = experiment: plaque reduction assay, rhinovirus serotype 22; assay type: cell-based, human rhinovirus (HRV); details: Enterovirus, HRV22, 50% plaque reduction, HeLa (Wisconsin) cells, read-out: MIC
Description: as §1, §2, §3

HRV-15 = experiment: plaque reduction assay, rhinovirus serotype 15; assay type: cell-based, human rhinovirus (HRV); details: Enterovirus, HRV15, 50% plaque reduction, HeLa (Wisconsin) cells, read-out: MIC
Description: as §1, §2, §3

HRV-30 = experiment: plaque reduction assay, rhinovirus serotype 30; assay type: cell-based, human rhinovirus (HRV); details: Enterovirus, HRV30, 50% plaque reduction, HeLa (Wisconsin) cells, read-out: MIC
Description: as §1, §2, §3

HRV-14 = experiment: plaque reduction assay, rhinovirus serotype 14; assay type: cell-based, human rhinovirus (HRV); details: 50% plaque reduction, HeLa (Wisconsin) cells, read-out: MIC
Description: as §1, §2, §3

HRV-89 = experiment: plaque reduction assay, rhinovirus serotype 89; assay type: cell-based, human rhinovirus (HRV); details: 50% plaque reduction, HeLa (Wisconsin) cells, read-out: MIC
Description: as §1, §2, §3

Compound: Cc1cc(CCCCCOc2ccc(-c3nnco3)cc2)on1 [Example 1, 3-Methyl-5-{5-[4-(1,3,4-oxadiazol-2-yl)phenoxy]pentyl}-isoxazole, reference compound]
- MIC₈₀ (N) (Rhinovirus) [1]: 2.56 (1) micrograms per milliliter
- EC50 (Polio 2): 0.05 µg/mL (≈ 0.16 µM)

Compound: CCCc1cc(CCCOc2c(C)cc(-c3noc(C)n3)cc2C)on1 [Example 9, 5-{3-[2,6-Dimethyl-4-(5-methyl-1,2,4-oxadiazol-3-yl)phenoxy]propyl}-3-propylisoxazole]
- MIC50 [1]: 0.025 µg/mL (≈ 0.0703 µM)
- MIC₈₀ (N) (Rhinovirus) [1]: 0.04 (6) micrograms per milliliter

Compound: Cc1cc(CCCCCOc2c(Cl)cc(-c3nnco3)cc2Cl)on1 [Example 10(c), 5-{5-[2,6-Dichloro-4-(1,3,4-oxadiazol-2-yl)phenoxy]-pentyl}-3-methylisoxazole, reference compound]
- EC50 (HRV-1A): 1.45 µg/mL (≈ 3.79 µM)
- EC50 (HRV-21): 0.24 µg/mL (≈ 0.628 µM)
- EC50 (HRV-25): 2.42 µg/mL (≈ 6.33 µM)
- EC50 (HRV-1B): 0.53 µg/mL (≈ 1.39 µM)
- EC50 (HRV-6): 7.06 µg/mL (≈ 18.5 µM)
- MIC50 [1]: 0.25 µg/mL (≈ 0.654 µM)
- MIC₈₀ (N) (Rhinovirus) [1]: 0.91 micrograms per milliliter
- EC50 (Polio 2): 2.24 µg/mL (≈ 5.86 µM)
- EC50 (HRV-86): 1.28 µg/mL (≈ 3.35 µM)
- EC50 (HRV-41): 2.76 µg/mL (≈ 7.22 µM)
- EC50 (HRV-50): 0.091 µg/mL (≈ 0.238 µM)
- EC50 (HRV-67): 0.64 µg/mL (≈ 1.67 µM)
- EC50 (HRV-2): 0.41 µg/mL (≈ 1.07 µM)
- EC50 (HRV-22): 0.45 µg/mL (≈ 1.18 µM)
- EC50 (HRV-15): 1.92 µg/mL (≈ 5.02 µM)
- EC50 (HRV-30): 0.1 µg/mL (≈ 0.262 µM)
- EC50 (HRV-14): 2.02 µg/mL (≈ 5.28 µM)
- EC50 (HRV-89): 0.28 µg/mL (≈ 0.733 µM)

Compound: Cc1cc(CCCOc2c(C)cc(-c3nnc(C)o3)cc2C)on1 [12(d), 5-{3-[2,6-Dimethyl-4-(5-methyl-1,3,4-oxadiazol-2-yl)-phenoxy]propyl}-3-methylisoxazole]
- MIC50 [1]: 0.054 µg/mL (≈ 0.165 µM)
- MIC₈₀ (N) (Rhinovirus) [1]: 0.35 (6) micrograms per milliliter

Compound: Cc1cc(CCCCCOc2c(C)cc(-c3nc(C)no3)cc2C)on1 [2(b), 5-{5-[2,6-dimethyl-4-(3-methyl-1,2,4-oxadiazol-5-yl)phenoxy]pentyl}-3-methylisoxazole]
- MIC50 [1]: 0.053 µg/mL (≈ 0.149 µM)
- MIC₈₀ (N) (Rhinovirus) [1]: 0.42 (6) micrograms per milliliter

Compound: CCCc1cc(CCCOc2c(C)cc(-c3nc(C)no3)cc2C)on1 [5(e), 5-{3-[2,6-dimethyl-4-(3-methyl-1,2,4-oxadiazol-5-yl)phenoxy]propyl}-3-(n-propyl)isoxazole]
- MIC50 [1]: 0.036 µg/mL (≈ 0.101 µM)
- MIC₈₀ (N) (Rhinovirus) [1]: 0.06 (7) micrograms per milliliter

Compound: Cc1cc(CCCOc2c(C)cc(-c3nc(C)no3)cc2C)on1 [3(b), 5-{3-[2,6-Dimethyl-4-(3-methyl-1,2,4-oxadiazol-5-yl)-phenoxy]propyl}-3-methylisoxazole]
- MIC50 [1]: 0.026 µg/mL (≈ 0.0794 µM)
- MIC₈₀ (N) (Rhinovirus) [1]: 0.12 (15) micrograms per milliliter

Compound: CCc1cc(CCCOc2c(C)cc(-c3noc(C)n3)cc2C)on1 [Example 8(c), 5-{3-[2,6-dimethyl-4-(5-methyl-1,2,4-oxadiazol-3-yl)phenoxy]propyl}-3-ethylisoxazole]
- MIC50 [1]: 0.017 µg/mL (≈ 0.0498 µM)
- MIC₈₀ (N) (Rhinovirus) [1]: 0.05 (6) micrograms per milliliter

Compound: CCc1cc(CCCOc2c(C)cc(-c3nc(C)no3)cc2C)on1 [4(d), 5-{3-[2,6-Dimethyl-4-(3-methyl-1,2,4-oxadiazol-5-yl)-phenoxy]propyl}-3-ethylisoxazole]
- MIC50 [1]: 0.042 µg/mL (≈ 0.123 µM)
- MIC₈₀ (N) (Rhinovirus) [1]: 0.15 (15) micrograms per milliliter

Compound: Cc1cc(CCCCCOc2c(C)cc(-c3noc(C)n3)cc2C)on1 [Example 6, 5-{5-[2,6-dimethyl-4-(5-methyl-1,2,4-oxadiazol-3-yl)phenoxy]pentyl}-3-methylisoxazole]
- MIC50 [1]: 0.018 µg/mL (≈ 0.0506 µM)
- MIC₈₀ (N) (Rhinovirus) [1]: 0.10 (5) micrograms per milliliter

Compound: Cc1cc(CCCOc2c(C)cc(-c3noc(C)n3)cc2C)on1 [Example 7, 5-{3-[2,6-Dimethyl-4-(5-methyl-1,2,4-oxadiazol-3-yl)phenoxy]propyl}-3-methylisoxasole]
- MIC50 [1]: 0.012 µg/mL (≈ 0.0367 µM)
- MIC₈₀ (N) (Rhinovirus) [1]: 0.069 (13) micrograms per milliliter

Compound: Cc1cc(CCCCCOc2c(Cl)cc(-c3nnc(C)o3)cc2Cl)on1 [Example 11(c), 5-{5-[2,6-dichloro-4-(5-methyl-1,3,4-oxadiazol-2-yl)phenoxy]pentyl}-3-methylisoxazole]
- EC50 (HRV-1A): 0.44 µg/mL (≈ 1.11 µM)
- EC50 (HRV-21): 0.0092 µg/mL (≈ 0.0232 µM)
- EC50 (HRV-25): 0.7 µg/mL (≈ 1.77 µM)
- EC50 (HRV-1B): 0.14 µg/mL (≈ 0.353 µM)
- EC50 (HRV-6): 0.46 µg/mL (≈ 1.16 µM)
- MIC50 [1]: 0.14 µg/mL (≈ 0.353 µM)
- MIC₈₀ (N) (Rhinovirus) [1]: 0.46 (15) micrograms per milliliter
- EC50 (HRV-86): 0.57 µg/mL (≈ 1.44 µM)
- EC50 (HRV-41): 99 µg/mL (≈ 250 µM)
- EC50 (HRV-50): 0.041 µg/mL (≈ 0.103 µM)
- EC50 (HRV-67): 0.1 µg/mL (≈ 0.252 µM)
- EC50 (HRV-2): 0.016 µg/mL (≈ 0.0404 µM)
- EC50 (HRV-22): 0.018 µg/mL (≈ 0.0454 µM)
- EC50 (HRV-15): 0.42 µg/mL (≈ 1.06 µM)
- EC50 (HRV-30): 0.031 µg/mL (≈ 0.0782 µM)
- EC50 (HRV-14): 0.19 µg/mL (≈ 0.479 µM)
- EC50 (HRV-89): 0.01 µg/mL (≈ 0.0252 µM)

Compound: Cc1cc(CCCCCCCOc2ccc(-c3nnc(C)o3)cc2)on1 [Example 13, 3-Methyl-5-{7-[4-(5-methyl-1,3,4-oxadiazol-2-yl)phenoxy]-heptyl}isoxazole]
- MIC50 [1]: 2.3 µg/mL (≈ 6.47 µM)
- MIC₈₀ (N) (Rhinovirus) [1]: 3.2 (2) micrograms per milliliter

Compound: Cc1cc(CCCCCOc2c(C)cc(-c3nnc(C)o3)cc2C)on1 [Example 14, 5-{5-[2,6-Dimethyl-4-(5-methyl-1,3,4-oxadiazol-2-yl)phenoxy]pentyl}-3-methylisoxazole]
- MIC50 [1]: 0.34 µg/mL (≈ 0.957 µM)
- MIC₈₀ (N) (Rhinovirus) [1]: 0.67 (2) micrograms per milliliter
